Experimental data from the NIST ThermoML archive (doi:10.1016/j.fluid.2016.12.017).

Test: mean ionic activity coefficient (dimensionless); mn = molality of the nth substance listed, in mol/kg
Details: 101 kPa, Liquid, galvanic cell

CCn1cc[n+](C)c1.[Br-] [1-ethyl-3-methylimidazolium bromide] + O
mean ionic activity coefficient
Details	298.2 K	308.2 K
m1 = 0.01	0.888	0.895
m1 = 0.0199	0.846	0.859
m1 = 0.0397	0.791	0.813
m1 = 0.0592	0.753	0.781
m1 = 0.0785	0.723	0.757
m1 = 0.1001	0.696	0.735
m1 = 0.1995	0.611	0.665
m1 = 0.3996	0.523	0.585
m1 = 0.6004	0.474	0.534
m1 = 0.7996	0.441	0.497
m1 = 1.001	0.417	0.467
m1 = 1.2	0.398	0.442
m1 = 1.4	0.382	0.42
m1 = 1.6	0.367	0.4
m1 = 1.8	0.354	0.382
m1 = 2	0.341	0.366
m1 = 2.2	–	0.351
